For data set [1], the system named is ptosis induced by reserpine. The data set is described as follows: Antagonism of ptosis induced by reserpine. The format is in vivo, female mouse, CDI (Charles Rivers, France). Particulars: reserpine 2 mg/kg intravenous, 1 hour; for ED50: Mus musculus, po, per os, read-out: Antagonism of ptosis induced by reserpine, ED 50. On the procedure:
The majority of antidepressants antagonize the ptosis induced by reserpine. This test described by Gouret [Journal de Pharmacologie (Paris), 1973, 4(1), 105-128] was made in the female mouse, CDI (Charles Rivers, France) weighing from 18 to 23 g. The reserpine causes a ptosis 1 hour after its intravenous administration; certain antidepressants, particularly the imipraminics, oppose this ptosis.
The following protocol has been chosen:
The substances to be studied were administered per os to batches of 10 mice. The reserpine was administered simultaneously by the intravenous route at the dose of 2 mg/kg. 1 hour after the administration of reserpine, the number of animals not presenting ptosis is noted.

Data set [2] deals with hypothermia induced by reserpine. Put plainly: Antagonism of the hypothermia induced by reserpine. The format is in vivo, female mice, CDI (Charles Rivers, France). Particulars: reserpine 5 mg/kg i.p., 4 hours. The procedure: The majority of antidepressants antagonize the hypothermia induced by reserpine. This test was carried out according to the method described by HINO et Coll [Chem Pharm Bull 28 (9), 2618-2622, 1980] on female mice, CDI (Charles Rivers, France) weighing from 18 to 23 g.
(§1) The following protocol was chosen:
The substances to be studied are administered per os to batches of 10 mice, the controls receive the solvent along, simultaneously, the reserpine is administered i.p. at the dose of 5 mg/kg. The temperature of each animal is taken immediately before administration of the products to be tested and 4 hours afterwards. For each animal, the difference in temperature before and after treatment is calculated. The results are expressed in percentage of antagonism of the hypothermia observed in the controls.

A short description of data set [3]: Toxicity. The format is in vivo. The following applies: per os; for Toxicity: in words (atoxic at the stated dose).
A short description of data set [4]: Pharmacological trials on the central nervous system (tests A to E, overall statement). The format is in vivo, female mice, CDI (Charles Rivers, France). Particulars: overall statement on Table II. The procedure: The products according to the invention have been subjected to pharmacological trials with a view to determining their activity on the central nervous system.
The various tests to which the products have been subjected will be indicated hereinbelow. In all cases, the products under study were administered per os.

Data set [5] can be described thus: Porsolt test (despair reaction, reduction in immobilization time). The format is in vivo, female mouse, CDI (Charles Rivers, France). The following applies: per os, 1 hour before test. On the procedure:
This test was carried out in the female mouse, CDI (Charles Rivers, France) weighing from 18 to 23 g, according to the method described by Porsolt (Archives Internationales de Pharmacologie, 1977, 229, 327-336).
The principle of this test is as follows: when a mouse is placed in a narrow recipient, filled with water, it struggles and then, after 2 to 4 minutes, becomes still and floats on its stomach, its back rounded and its rear paws brought underneath its body; it makes only the few movements to enable it to hold its head out of the water. This is the so-called despair reaction.
Certain psychotherapeutics, particularly antidepressants, lengthen the time during which the mouse struggles.
as §1
The products to be studied were administered orally to batches of 10 mice. 1 hour later, the animals are placed in a narrow receipient (10×10×10 cm), filled with water up to a height of 6 cm, the temperature of the water being 24° C. The animals are left in the water for 6 minutes and the time during which the animal remains immobile between the second and the sixth minute is measured--the shorter the time, the more the substance is active.
The results are expressed as the reduction in the immobilization time with respect to controls.

Data set [6] concerns toxicity of yohimbine. The data set is described as follows: Potentialization of the toxicity of yohimbine. Particulars: Mus musculus, po, 18 h, read-out: Potentialization of yohimbine, ED 50. The format is in vivo, female mice, CDI (Charles Rivers, France). The procedure: The majority of antidepressants potentialize the toxicity of yohimbine. This test was carried out according to the method described by MALICK (in Antidepressants: Neurochemical Behavioural and Clinical Perspectives, eds S. J. Enna, J. B. Malick, E. Richelson, Raven Press, New York, pages 141-153) on female mice, CDI (Charles Rivers, France).
The substances to be studied are administered per os to batches of 10 mice. The yohimbine is administered i.p. 1 hour later at the dose of 30 mg/kg. Mortality is noted 18 hours later.

Data set [7] deals with tremors induced by oxotremorine. The data set is described as follows: Antagonism of the tremors induced by oxotremorine. The format is in vivo, female mice, CDI (Charles Rivers, France). The following applies: Mus musculus, po, 0.5 h; per os; oxotremorine 1 mg/kg per os at 60 mins., read 30 mins. later; read-out: Antagonism of oxotremorine, ED 50. On the procedure: This test was carried out on female mice, CDI (Charles Rivers, France) weighing from 18 to 23 g.
as §1
The products to be studied are administered at time 0 by the oral route to batches of 10 mice. At time 60 mins., the oxotremorine is administered per os at the dose of 1 mg/kg.

Where [8] appears, read: 10 mg/kg, ** p < 0.01 (all but 40 460, which has *).
Setting [9] is: at 10 mg/kg per os, ** p < 0.01.

Data on seven compounds can be found in patent US4540696A, “1-Piperazinyl 4-phenylquinazoline compounds having antidepressant properties and drugs containing same” (Sanofi S.A., priority 1982, dated 1985).

In the case of `OC1CCN(c2nc(-c3ccccc3Cl)c3cc(Cl)ccc3n2)CC1` [40 331, 6-chloro 4-(2-chlorophenyl) 2-(4-hydroxy 1-piperidinyl) quinazoline, reference compound], in data set [1] (at 100 mg/kg per os), the “Antagonism of ptosis induced by reserpine, percentage” value amounted to 0%. Besides, the “Antagonism of hypothermia induced by reserpine, percentage of antagonism” value (from here on “Antagonism … percentage of antagonism”) in data set [2] (at 100 mg/kg per os) is recorded as -20%. Moreover, the Toxicity entry in data set [3] was “Atoxic at 500 mg/kg”. Also, the “Activity on the tests carried out” value in data set [4] is “virtually inactive”.

As for `CN1CCN(c2nc(-c3ccccc3Cl)c3cc(Cl)ccc3n2)CC1` [40 460], in data set [5] (setting [8]), the “Porsolt test: reduction in the immobilization time with respect to controls” value (“Porsolt test: reduction” below) was -11%. Besides, the ED50 in data set [1] was 2.1 mg/kg; in data set [6] it was 5.4 mg/kg; in data set [7] it was 142 mg/kg. The “Antagonism … percentage of antagonism” value in data set [2] (at 20 mg/kg per os, ** p < 0.01) is “+71%”. Besides, in data set [3], the “Toxicity: LD 80” value came out at 1000 mg/kg.

`CN1CCN(c2nc(-c3ccccc3F)c3cc(Cl)ccc3n2)CC1` [40 468]: the “Porsolt test: reduction” value in data set [5] (setting [8]) is given as -61%. The ED50 in data set [1] worked out at 0.98 mg/kg; in data set [6] it was 1.65 mg/kg; in data set [7], 50 mg/kg. In addition, the “Antagonism … percentage of antagonism” value in data set [2] (setting [9]) is “+73%”. In data set [3], the Toxicity entry is “Atoxic at 1 g/kg”.

On to `CN1CCN(c2nc(-c3ccccc3Cl)c3cc([N+](=O)[O-])ccc3n2)CC1` [40 498, 2-(1-methyl 4-piperazinyl) 4-(2-chlorophenyl) 6-nitro quinazoline], for which the “Porsolt test: reduction” value in data set [5] (setting [8]) is listed as -31%. Moreover, the ED50 in data set [1] was 2.8 mg/kg; in data set [6], 7.8 mg/kg; in data set [7] it was 43.5 mg/kg. Besides, in data set [2] (setting [9]), the “Antagonism … percentage of antagonism” value is given as “+68%”. Besides, in data set [3], the Toxicity result was “Atoxic at 1 g/kg”.

In the case of `Fc1ccccc1-c1nc(N2CCNCC2)nc2ccc(Cl)cc12` [41 125], the “Porsolt test: reduction” value in data set [5] (5 mg/kg, ** p < 0.01) is -46. Also, the figures for the ED50 in data set [1], in data set [6] and in data set [7] were 0.48 mg/kg, 0.74 mg/kg and 9.5 mg/kg, respectively. The “Antagonism … percentage of antagonism” value in data set [2] (setting [9]) is “+81%”. For the same compound, the “Toxicity: LD 40” value in data set [3] turned out to be 1000 mg/kg.

As to `CCCN1CCN(c2nc(-c3ccccc3F)c3cc(Cl)ccc3n2)CC1` [41 128], the “Porsolt test: reduction” value in data set [5] (5 mg/kg, ** p < 0.01) was -31. Also, the ED50 in data set [1] amounted to 6.2 mg/kg; in data set [6], 1.7 mg/kg. Besides, in data set [2] (setting [9]), the “Antagonism … percentage of antagonism” value was “+62%”. Besides, the Toxicity entry in data set [3] is reported as “Atoxic at 1 g/kg”.

Take `CN(C)CCCN1c2ccccc2CCc2ccccc21` [Imipramine, reference compound]: in data set [5] (setting [8]), the “Porsolt test: reduction” value was -30%. Further, the ED50 came out at 2.4 mg/kg in data set [1] and 12 mg/kg in data set [7]. Also, in data set [2] (setting [9]), the “Antagonism … percentage of antagonism” value is listed as “+59%”.
